Experimental findings from patent US6710048B2, “Pyrazine derivatives as modulators of tyrosine kinases” (Ortho-McNeil Pharmaceutical, Inc., priority 2000, dated 2004) are described below.

In experiment [1] the target is T1, CDK1 (cyclin dependent kinase 1) / cyclin B (Homo sapiens, UniProt P06493).
T1 construct: purchased New England Biolabs 6020; host or cells: insect cells
The experiment is described as follows: CDK1 kinase assay. Format: biochemical. Here is the method:
(§1) The term n.d. means not tested.
Assays to test compound inhibition of other kinases were preformed using methods that measure the amount of phosphorylation of a biotinylated peptide substrate. Biotinylated peptide substrates were selected from the literature as appropriate for the enzyme being evaluated. The general procedure used to assay for kinase activity is as follows: A kinase reaction mix was prepared in 50 mM Tris-HCl pH=8, 10 mM MgCl2, 0.1 mM NaVO4, 1 mM DTT, 5-10 μM ATP, 0.25-1 μM biotinylated peptide substrate, 0.2-0.8 μCuries per well ^33P-γ-ATP [2000-3000 Ci/mmol]. Assay conditions vary slightly for each protein kinase, for example, insulin receptor kinase requires 10 mM MnCl2 for activity and Calmodulin-dependent protein kinase requires calmodulin and 2 mM CaCl2. The reaction mixture was dispensed into the wells of a streptavidin coated Flashplate and 1 μl drug stock in 100% DMSO was added to a 100 μl reaction volume resulting in a final concentration of 1% DMSO in the reaction. Enzyme was diluted in 50 mM Tris-HCl pH=8.0, 0.1% BSA and added to each well. The reaction was incubated for one hour at 30° C. in the presence of compound. After one hour the reaction mix was aspirated from the plate and the plate was washed with PBS containing 100 mM EDTA. The plate was read on a scintillation counter to determine ^33P-γ-ATP incorporated into the immobilized peptide. […] A maximum and minimum signal for the assay was determined on each plate. The IC50 was calculated from the dose response curve of the percent inhibition of the maximum signal in the assay according to the formula [max signal−background/test compound signal−background (100)=% inhibition] by graphing the percent inhibition against the log concentration of test compound. Known inhibitor compounds appropriate for the kinase being assayed were also included on each plate.
VEGF-R (vascular endothelial growth factor receptor-2) is a fusion protein containing a polyhistidine tag at the N-terminus followed by amino acids 786-1343 of the rat VEGF-R2 kinase domain (GenBank Accession #U93306). CDK1 (cyclin dependent kinase 1) is isolated from insect cells expressing both the human CDK1 catalytic subunit and its positive regulatory subunit cyclin B (New England Biolabs, Beverly, Mass., Cat. #6020). CDK4 (cyclin dependent kinase 4) contains amino acids 769 to 921 of the mouse […] protein found in the GST-retinoblastoma protein construct (Santa Cruz Biotechnology, Santa Cruz, Calif.; Cat. #SC-4112). Insulin Receptor Kinase consists of residues 941-1313 of the cytoplasmic domain of the beta-subunit of the human insulin receptor (BIOMOL, Plymouth Meeting, Pa., Cat. #SE-195). Protein Kinase A is the catalytic subunit of cAMP dependent protein kinase-A purified from bovine heart (Upstate Biotech, Lake Placid, N.Y., Cat#14-114). PKC (protein kinase-C) is the gamma or beta isoform of the human protein produced in insect cells (BIOMOL, Plymouth Meeting, Pa., Cat. #SE-143). Casein Kinase 1 is a truncation at amino acid 318 of the C-terminal portion of the rat CK1 delta isoform produced in E.coli (New England Biolabs, Beverly, Mass., Cat. #6030). Casein Kinase 2 includes the alpha and beta subunits of the human CK2 protein produced in E.coli (New England Biolabs, Beverly, Mass., Cat. #6010). Calmodulin Kinase (calmodulin-dependent protein kinase 2) is a truncated version of the alpha subunit of the rat protein produced in insect cells (New England Biolabs, Beverly, Mass., Cat. #6060). Glycogen Synthase Kinase-3 is the beta isoform of the rabbit enzyme produced in E. coli (New England Biolabs, Beverly, Mass., Cat. #6040). MAP Kinase is the rat ERK-2 isoform containing a polyhistidine tag at the N-terminus produced in E. coli. and activated by phosphorylation with MEK1 prior to purification (BIOMOL, Plymouth Meeting, Pa., Cat. #SE-137). EGFR (epidermal growth factor receptor) is purified from human A431 cell membranes (Sigma, St. Louis, Mo., Cat.# E3641). […]

Experiment [2] concerns the target T2, VEGF-R (vascular endothelial growth factor receptor-2) (Rattus norvegicus, UniProt O08775).
T2 construct: polyhistidine (6xHis) (N)
The experiment is described as follows: VEGF-R screening assay (33P FlashPlate kinase assay). Format: biochemical. How it is done:
A kinase reaction mixture was prepared containing 50 mM Tris-HCl pH=8, 10 mM MgCl2, 0.1 mM NAPO4, 1 mM DTT, 10 μM ATP, 0.025 μM biotinylated peptide substrate and 0.8 μCuries per well ^33P-γ-ATP [2000-3000 Ci/mmol]. 70 μl of the kinase reaction mixture was dispensed into the well of a streptavidin coated FlashPlate™ (Cat. # SMP103, NEN, Boston, Mass.). Then 1 μl of test compound stock in 100% DMSO was added to the wells resulting in a final concentration of 1% DMSO in the reaction with a 100 μl final reaction volume. Next, soluble rat tyrosine kinase containing an N-terminal 6×HIS tag was diluted in 50 mM Tris-HCl pH=8.0, 0.1% BSA at a concentration of 5 ng per microliter and 30 μl (150 ng enzyme per test well) was added to each well to initiate the reaction. The reaction was incubated for one hour at 30° C. At the end of the 1-hour incubation, the reaction was terminated by aspirating the reaction mixture from the plate and washing the wells twice with PBS containing 100 mM EDTA. The PLCI biotinylated peptide substrate becomes immobilized on the Flashplate™ and the incorporation of ^33P-γ-ATP was measured by reading the plate on a scintillation counter. Inhibition of the enzymatic activity of the VEGF-R was measured by observing a reduced amount of ^33P-γ-ATP incorporated into the immobilized peptide.
as §1
Assays to test compound inhibition of other kinases were preformed using methods that measure the amount of phosphorylation of a biotinylated peptide substrate. Biotinylated peptide substrates were selected from the literature as appropriate for the enzyme being evaluated. The general procedure used to assay for kinase activity is as follows: A kinase reaction mix was prepared in 50 mM Tris-HCl pH=8, 10 mM MgCl2, 0.1 mM NaVO4, 1 mM DTT, 5-10 μM ATP, 0.25-1 μM biotinylated peptide substrate, 0.2-0.8 μCuries per well ^33P-γ-ATP [2000-3000 Ci/mmol]. Assay conditions vary slightly for each protein kinase, for example, insulin receptor kinase requires 10 mM MnCl2 for activity and Calmodulin-dependent protein kinase requires calmodulin and 2 mM CaCl2. The reaction mixture was dispensed into the wells of a streptavidin coated Flashplate and 1 μl drug stock in 100% DMSO was added to a 100 μl reaction volume resulting in a final concentration of 1% DMSO in the reaction. Enzyme was diluted in 50 mM Tris-HCl pH=8.0, 0.1% BSA and added to each well. The reaction was incubated for one hour at 30° C. in the presence of compound. After one hour the reaction mix was aspirated from the plate and the plate was washed with PBS containing 100 mM EDTA. The plate was read on a scintillation counter to determine ^33P-γ-ATP incorporated into the immobilized peptide. Test compounds were assayed in duplicate at 8 concentrations [100 tM, 10 μM, 1 μM, 100 nM, 10 nM, 1 nM, 100 μM, 10 μM]. A maximum and minimum signal for the assay was determined on each plate. The IC50 was calculated from the dose response curve of the percent inhibition of the maximum signal in the assay according to the formula [max signal−background/test compound signal−background (100)=% inhibition] by graphing the percent inhibition against the log concentration of test compound. Known inhibitor compounds appropriate for the kinase being assayed were also included on each plate.
VEGF-R (vascular endothelial growth factor receptor-2) is a fusion protein containing a polyhistidine tag at the N-terminus followed by amino acids 786-1343 of the rat VEGF-R2 kinase domain (GenBank Accession #U93306). CDK1 (cyclin dependent kinase 1) is isolated from insect cells expressing both the human CDK1 catalytic subunit and its positive regulatory subunit cyclin B (New England Biolabs, Beverly, Mass., Cat. #6020). CDK4 (cyclin dependent kinase 4) contains amino acids 769 to 921 of the mouse […] protein found in the GST-retinoblastoma protein construct (Santa Cruz Biotechnology, Santa Cruz, Calif.; Cat. #SC-4112). […]

[3] abbreviates: Tables 1-3, >10 or >100 = no 50% inhibition at highest dose tested, read-out: CDK IC50.
[4] abbreviates: Tables 1-3, >10 or >100 = no 50% inhibition at highest dose tested, read-out: VEGF-R IC50.
Setting [5] is: Table 4 kinase selectivity, read-out: IC50, Assay 1 VEGF-R.
[6] abbreviates: Table 4 kinase selectivity, 10 = approximate value, read-out: IC50, Assay 2 CDK1.

pIC50: −log10 of the molar value. Where two headings read alike, the source gives them in different places. A value given as a limit tells only on which side of the number the result lay.

As a reminder, the pIC50 is the IC50 on a negative log10 scale, so that one unit is a factor of ten.

T2 sequence (O08775 786-1343): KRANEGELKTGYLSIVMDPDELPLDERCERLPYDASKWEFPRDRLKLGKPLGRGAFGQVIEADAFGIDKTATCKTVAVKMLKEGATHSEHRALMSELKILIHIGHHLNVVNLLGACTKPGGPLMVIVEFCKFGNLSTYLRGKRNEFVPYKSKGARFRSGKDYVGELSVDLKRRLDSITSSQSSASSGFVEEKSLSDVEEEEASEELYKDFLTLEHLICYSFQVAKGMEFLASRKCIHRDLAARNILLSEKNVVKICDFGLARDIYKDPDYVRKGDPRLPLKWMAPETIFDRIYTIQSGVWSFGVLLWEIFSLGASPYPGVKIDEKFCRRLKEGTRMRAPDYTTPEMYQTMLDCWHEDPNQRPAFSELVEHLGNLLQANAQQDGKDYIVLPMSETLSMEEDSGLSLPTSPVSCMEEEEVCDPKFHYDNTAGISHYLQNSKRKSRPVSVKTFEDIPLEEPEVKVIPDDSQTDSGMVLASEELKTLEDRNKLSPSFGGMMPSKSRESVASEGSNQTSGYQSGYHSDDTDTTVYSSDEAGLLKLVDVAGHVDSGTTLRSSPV
T1 sequence (P06493 whole entry): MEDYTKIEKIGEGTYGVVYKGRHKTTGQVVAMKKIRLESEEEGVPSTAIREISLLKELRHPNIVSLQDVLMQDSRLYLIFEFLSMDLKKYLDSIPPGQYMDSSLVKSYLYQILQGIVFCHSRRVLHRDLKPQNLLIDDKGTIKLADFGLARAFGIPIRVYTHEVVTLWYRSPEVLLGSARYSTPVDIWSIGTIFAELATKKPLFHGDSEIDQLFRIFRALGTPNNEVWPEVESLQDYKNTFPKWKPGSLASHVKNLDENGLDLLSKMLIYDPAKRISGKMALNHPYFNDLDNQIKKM
T1 sequence (P14635 whole entry partner): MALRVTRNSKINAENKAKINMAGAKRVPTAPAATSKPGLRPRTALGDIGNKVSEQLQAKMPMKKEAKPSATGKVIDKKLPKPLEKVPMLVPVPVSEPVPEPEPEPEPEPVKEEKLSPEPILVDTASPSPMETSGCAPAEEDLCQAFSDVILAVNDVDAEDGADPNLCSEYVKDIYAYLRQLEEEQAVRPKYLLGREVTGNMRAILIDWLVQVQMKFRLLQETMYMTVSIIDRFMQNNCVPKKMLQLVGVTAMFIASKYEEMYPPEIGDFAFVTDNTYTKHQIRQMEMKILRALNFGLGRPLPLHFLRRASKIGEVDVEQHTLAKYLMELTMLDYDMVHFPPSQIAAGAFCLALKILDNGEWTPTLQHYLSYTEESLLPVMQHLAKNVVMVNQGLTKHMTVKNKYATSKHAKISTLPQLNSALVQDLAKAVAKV

`CCOC(=O)c1cncc(-c2cncc(Nc3cccc(Cl)c3)n2)c1` [Cmd 1]: in experiment [1] (setting [3]), the negative logarithm of the IC50 (pIC50) was below 5.00.
In the case of `Nc1cncc(-c2cncc(Nc3cccc(Cl)c3)n2)c1` [Cmd 5], the negative logarithm of the IC50 (pIC50) in experiment [2] (setting [4]) is 5.94; in experiment [1] (setting [3]), 4.93.
`OCCNc1cncc(-c2cncc(Nc3cccc(Cl)c3)n2)c1` [Cmd 31]: the pIC50 in experiment [2] (setting [4]) was 6.82; in experiment [1] (setting [3]), around 5.00.
Turning to `Clc1cccc(Nc2cncc(-c3cncc(NCCCN4CCOCC4)c3)n2)c1` [Cmd 34], the pIC50 in experiment [2] (setting [4]) was 6.74; in experiment [1] (setting [3]), below 4.00.
On the same counts, the results for `COCCNC(=O)c1cncc(-c2cncc(Nc3cccc(Cl)c3)n2)c1` [Cmd 36] are around 5.00 and below 4.00.
In the same order, the values of `CN(C)CCCNC(=O)c1cncc(-c2cncc(Nc3cccc(Cl)c3)n2)c1` [Cmd 37] are 5.26 and below 4.00.
In the case of `CN(C)CCNC(=O)c1cncc(-c2cncc(Nc3cccc(Cl)c3)n2)c1` [Cmd 38], the pIC50 in experiment [2] (setting [4]) was 5.37; in experiment [1] (setting [3]), 5.43.
With `CCOCCCNC(=O)c1cncc(-c2cncc(Nc3cccc(Cl)c3)n2)c1` [Cmd 40], the pIC50 in experiment [2] (setting [4]) and in experiment [1] (setting [3]) was below 4.00 each time.
For the molecule `COCC(=O)Nc1cncc(-c2cncc(Nc3cccc(Cl)c3)n2)c1` [Cmd 41], the negative logarithm of the IC50 (pIC50) was 6.44 in experiment [2] (setting [4]) and below 4.00 in experiment [1] (setting [3]).
Regarding `CN(C)c1ccc(C(=O)Nc2cncc(-c3cncc(Nc4cccc(Cl)c4)n3)c2)cc1` [Cmd 42], the pIC50 in experiment [2] (setting [4]) and in experiment [1] (setting [3]) was below 4.00 in each case.
On to `O=C(Nc1cncc(-c2cncc(Nc3cccc(Cl)c3)n2)c1)c1cccnc1` [Cmd 43], for which the results for the pIC50 in experiment [2] (setting [4]) and in experiment [1] (setting [3]) were 5.95 and below 4.00, respectively.
For the molecule `OCCCNc1cncc(-c2cncc(Nc3cccc(F)c3)n2)c1` [Cmd 52], the figures for the pIC50 in experiment [2] (setting [4]) and in experiment [1] (setting [3]) were 6.77 and around 4.00, respectively.
As to `COc1cccc(Nc2cncc(-c3cncc(NCCCO)c3)n2)c1` [Cmd 57], the values for the negative logarithm of the IC50 (pIC50) in experiment [2] (setting [4]) and in experiment [1] (setting [3]) were 6.09 and 4.09, respectively.
`OCCCNc1cncc(-c2cncc(NCc3ccccc3)n2)c1` [Cmd 62]: the pIC50 in experiment [2] (setting [4]) was 5.98; in experiment [1] (setting [3]), 4.46.
Turning to `Clc1cccc(Nc2cncc(-c3cncc(NCCCN4CCNCC4)c3)n2)c1` [Cmd 69], the figures for the negative logarithm of the IC50 (pIC50) in experiment [2] (setting [4]) and in experiment [1] (setting [3]) were 6.44 and below 5.00, respectively.
`Clc1cccc(Nc2cncc(-c3cncc(NCCCCc4ccncc4)c3)n2)c1` [Cmd 70]: in experiment [2] (setting [4]), the pIC50 was 6.53.
For `O=C(Nc1cncc(-c2cncc(Nc3cccc(Cl)c3)n2)c1)N1CCCC1` [Cmd 74], the figures for the pIC50 in experiment [2] (setting [4]) and in experiment [1] (setting [3]) were 6.24 and below 5.00, respectively.
Take `OCCOCCOCCNc1cncc(-c2cncc(Nc3cccc(Cl)c3)n2)c1` [Cmd 78]: the negative-log IC50 (pIC50) in experiment [2] (setting [4]) was 6.55; in experiment [1] (setting [3]), below 5.00.
`Clc1cccc(Nc2cncc(-c3cncc(NCCCc4ccccc4)c3)n2)c1` [Cmd 80]: the figures for the negative logarithm of the IC50 (pIC50) in experiment [2] (setting [4]) and in experiment [1] (setting [3]) were 5.64 and below 5.00, respectively.
With `CCN(CC)C(=O)CNc1cncc(-c2cncc(Nc3cccc(Cl)c3)n2)c1` [Cmd 81], the pIC50 in experiment [2] (setting [4]) is 5.96; in experiment [1] (setting [3]), below 5.00.
Regarding `Clc1cccc(Nc2cncc(-c3cncc(NCc4ccccc4)c3)n2)c1` [Cmd 82], the pIC50 in experiment [2] (setting [4]) was 5.37; in experiment [1] (setting [3]), below 5.00.
Consider `Clc1cccc(Nc2cncc(-c3cncc(NCCOc4ccccc4)c3)n2)c1` [Cmd 83], for which the pIC50 in experiment [2] (setting [4]) and in experiment [1] (setting [3]) was below 5.00 in each case.
Turning to `CCOC(=O)CCCNc1cncc(-c2cncc(Nc3cccc(Cl)c3)n2)c1` [Cmd 84], the pIC50 was 6.90 in experiment [2] (setting [5]), 6.90 in experiment [2] (setting [4]), 5.69 in experiment [1] (setting [6]) and 5.69 in experiment [1] (setting [3]).
Consider `COCCOCCNc1cncc(-c2cncc(Nc3cccc(Cl)c3)n2)c1` [Cmd 85], for which the negative-log IC50 (pIC50) is 7.07 in experiment [2] (setting [5]), 7.07 in experiment [2] (setting [4]), below 5.00 in experiment [1] (setting [6]) and below 5.00 in experiment [1] (setting [3]).
As for `Clc1cccc(Nc2cncc(-c3cncc(NCCCN4CCN(c5cccc(Cl)c5)CC4)c3)n2)c1` [Cmd 86], the pIC50 in experiment [2] (setting [4]) and in experiment [1] (setting [3]) was below 5.00 each time.
On to `Clc1ccc(Nc2cncc(-c3cncc(NCCCc4ccncc4)c3)n2)cc1` [Cmd 87], for which the pIC50 in experiment [2] (setting [4]) was 6.00; in experiment [1] (setting [3]), below 5.00.
Regarding `COc1ccc(Nc2cncc(-c3cncc(NCCCc4ccncc4)c3)n2)cc1` [Cmd 88], the figures for the pIC50 in experiment [2] (setting [4]) and in experiment [1] (setting [3]) were 6.81 and below 5.00, respectively.
On the same counts, the results for `Clc1ccc(Nc2cncc(-c3cncc(NCCCc4ccncc4)c3)n2)cc1Cl` [Cmd 89] are 6.57 and below 5.00.
